Measurements taken from patent US4357325A, “Methods of controlling Pasteurella infections” (Eli Lilly and Company, priority 1981, dated 1982).
Values after ≈ are worked out from the molar mass of the structure shown.

Columns and labels:
[1] = system: P. multocida; test: MIC by conventional broth-dilution assay against P. multocida strains (Table II); type: cell-based, P. multocida (avian, bovine and porcine strains); details: Pasteurella multocida
Protocol: (§1) For example, representative compounds were tested against avian, bovine and porcine Pasteurella species, using the conventional broth-dilution assay. The P. haemolytica strains are bovine strains; the P. multocida strains are avian, bovine and porcine strains.

[2] = system: Pasteurella multocida; test: Treatment of Pasteurellosis in chicks (Table III); type: in vivo, chicks; avian P. multocida; details: 1 and 4 h post challenge, 5 days observation, ten chicks per group
Protocol: Representative compounds were evaluated in groups of ten one-day-old chicks at the specified dosage of subcutaneous injection given one and four hours post challenge of the chicks with Pasteurella multocida (0.1 ml of a 20-hour tryptose broth culture of an avian P. multocida given subcutaneously). The compounds (as free bases) were administered in an aqueous propylene glycol solution; non-medicated water and feed were provided to the animals ad libitum.

[3] = system: P. haemolytica; test: MIC by conventional broth-dilution assay against P. haemolytica strains (Table II); type: cell-based, P. haemolytica (bovine strains); details: Mannheimia haemolytica
Protocol: as §1

[4] = system: Pasteurella multocida; test: Treatment of Pasteurellosis in mice (Table IV); type: in vivo, mice; bovine isolate of P. multocida; details: 50 mg/kg × 2 s.c., 1 and 4 h post challenge, 7 days
Protocol: Cirramycin A1 and rosaramicin were evaluated in mice by subcutaneous injection given one and four hours post challenge of the mice with Pasteurella multocida (0.1 ml of a 10^-5 dilution of a tryptose broth culture of a bovine isolate). Mortality was evaluated for the following seven days.

[5] = 30 mg/kg × 2 s.c., first (or only) experiment
[6] = 30 mg/kg × 2 s.c., second experiment

| Structure (SMILES) | MIC ([1]; P. multocida strain 17E) | MIC ([1]; P. multocida strain 22A) | MIC ([1]; P. multocida strain 40G) | MIC ([1]; P. multocida strain 60A) | MIC ([1]; P. multocida strain 68C) | Deaths in Treated Chicks/Deaths in Infected Nonmedicated Controls [2, 5] | Deaths in Treated Chicks/Deaths in Infected Nonmedicated Controls [2, 6] | MIC ([3]; P. haemolytica strain 23A) | MIC ([3]; P. haemolytica strain 23C) | MIC ([3]; P. haemolytica strain 41D) | Deaths in Treated Chicks/Deaths in Infected Nonmedicated Controls ([2]; 60 mg/kg × 2 s.c.) | No. Died/No. Treated ([4]; Test A, replicate 1) | No. Died/No. Treated ([4]; Test A, replicate 2) | No. Died/No. Treated ([4]; Test B, replicate 1) | No. Died/No. Treated ([4]; Test B, replicate 2) |
| --- | --- | --- | --- | --- | --- | --- | --- | --- | --- | --- | --- | --- | --- | --- | --- |
| CCC1OC(=O)CC(O)C(C)C(OC2OC(C)C(O)C(N(C)C)C2O)C(CC=O)CC(C)C(=O)C=CC(C)=CC1COC1OC(C)C(O)C(O)C1OC (stereo not shown) [Lactenocin, lactenocin] | 12.5 µg/mL (≈ 16.5 µM) | 12.5 µg/mL (≈ 16.5 µM) | 25 µg/mL (≈ 33 µM) | 6.25 µg/mL (≈ 8.25 µM) | 6.25 µg/mL (≈ 8.25 µM) | 0/10 | 0/10 | 25 µg/mL (≈ 33 µM) | 25 µg/mL (≈ 33 µM) | 50 µg/mL (≈ 66 µM) |  |  |  |  |  |
| CC[C@H]1OC(=O)C[C@@H](O)[C@H](C)[C@@H](O[C@@H]2O[C@H](C)C[C@H](N(C)C)[C@H]2O)[C@@H](CC=O)C[C@@H](C)C(=O)/C=C/[C@]2(C)O[C@H]2[C@@H]1C [Rosaramicin, rosaramicin] | ≤ 0.78 µg/mL | 1.56 µg/mL (≈ 2.68 µM) | 1.56 µg/mL (≈ 2.68 µM) | ≤ 0.78 µg/mL | ≤ 0.78 µg/mL | 5/8 |  | 1.56 µg/mL (≈ 2.68 µM) | 12.5 µg/mL (≈ 21.5 µM) | 1.56 µg/mL (≈ 2.68 µM) | 2/8 | 0/5 | 0/5 | 0/5 | 3/5 |
| CCC1OC(=O)CC(O)C(C)C(OC2OC(C)C(O)C(N(C)C)C2O)C(CC=O)CC(C)C(=O)C=CC2(C)OC2C1C (stereo not shown) [Cirramycin A1, cirramycin A1] | 1.56 µg/mL (≈ 2.61 µM) | 3.12 µg/mL (≈ 5.22 µM) | 3.12 µg/mL (≈ 5.22 µM) | ≤ 0.78 µg/mL | 1.56 µg/mL (≈ 2.61 µM) |  |  | 3.12 µg/mL (≈ 5.22 µM) | 3.12 µg/mL (≈ 5.22 µM) | 3.12 µg/mL (≈ 5.22 µM) |  | 1/5 | 2/5 | 1/5 | 0/5 |
| CCC1OC(=O)CC(O)C(C)C(OC2OC(C)C(O)C(N(C)C)C2O)C(CC=O)CC(C)C(O)C=CC(C)=CC1COC1OC(C)C(O)C(OC)C1OC (stereo not shown) [9-Dihydrodesmycosin, 9-dihydrodesmycosin] | 12.5 µg/mL (≈ 16.2 µM) | 12.5 µg/mL (≈ 16.2 µM) | 12.5 µg/mL (≈ 16.2 µM) | 12.5 µg/mL (≈ 16.2 µM) | 12.5 µg/mL (≈ 16.2 µM) | 3/10 | 0/10 | 25 µg/mL (≈ 32.3 µM) | 25 µg/mL (≈ 32.3 µM) | 25 µg/mL (≈ 32.3 µM) |  |  |  |  |  |
| CCC1OC(=O)CC(O)C(C)C(OC2OC(C)C(O)C(N(C)C)C2O)C(CC=O)CC(C)C(=O)C=CC(C)=CC1C (stereo not shown) [DOMT, 23-deoxy-5-O-mycaminosyltylonolide] | 1.56 µg/mL (≈ 2.68 µM) | 1.56 µg/mL (≈ 2.68 µM) | 3.12 µg/mL (≈ 5.36 µM) | ≤ 0.78 µg/mL | ≤ 0.78 µg/mL | 1/9 | 1/10 | 3.12 µg/mL (≈ 5.36 µM) | 3.12 µg/mL (≈ 5.36 µM) | 6.75 µg/mL (≈ 11.6 µM) |  |  |  |  |  |
| CCC1OC(=O)CC(O)C(C)C(OC2OC(C)C(O)C(N(C)C)C2O)C(CC=O)CC(C)C(=O)C=CC(C)=CC1COC1OC(C)C(O)C(OC)C1OC (stereo not shown) [Desmycosin, desmycosin] | 12.5 µg/mL (≈ 16.2 µM) | 12.5 µg/mL (≈ 16.2 µM) | 25 µg/mL (≈ 32.4 µM) | 12.5 µg/mL (≈ 16.2 µM) | 6.25 µg/mL (≈ 8.1 µM) | 0/10 | 0/10 | 25 µg/mL (≈ 32.4 µM) | 25 µg/mL (≈ 32.4 µM) | 25 µg/mL (≈ 32.4 µM) |  |  |  |  |  |
| CCC1OC(=O)CC(O)C(C)C(OC2OC(C)C(O)C(N(C)C)C2O)C(CCO)CC(C)C(=O)C=CC(C)=CC1COC1OC(C)C(O)C(OC)C1OC (stereo not shown) [20-Dihydrodesmycosin, 20-dihydrodesmycosin] | 25 µg/mL (≈ 32.3 µM) | 25 µg/mL (≈ 32.3 µM) | 50 µg/mL (≈ 64.6 µM) | 25 µg/mL (≈ 32.3 µM) | 6.25 µg/mL (≈ 8.08 µM) | 0/10 | 0/10 | 50 µg/mL (≈ 64.6 µM) | 50 µg/mL (≈ 64.6 µM) | 50 µg/mL (≈ 64.6 µM) |  |  |  |  |  |
